# Data published in ChEMBL document CHEMBL4270599, “Synthesis of a 3'-C-ethynyl-β-d-ribofuranose purine nucleoside library: Discovery of C7-deazapurine analogs as potent antiproliferative nucleosides” (Eur J Med Chem, 2018).
# Columns and labels:
# Format in all cases: functional
# NCI-H226 [1] = test: Cytotoxicity against human NCI-H226 cells after 48 hrs by SRB assay; details: NCI-H226, 48 h
# NCI-H23 = test: Cytotoxicity against human NCI-H23 cells after 48 hrs by SRB assay; details: NCI-H23, 48 h
# HCT-116 = test: Cytotoxicity against human HCT116 cells after 48 hrs by SRB assay; details: HCT-116, 48 h
# UACC-62 = test: Cytotoxicity against human UACC62 cells after 48 hrs by SRB assay; details: UACC-62, 48 h
# UO-31 [2] = test: Cytotoxicity against human UO31 cells after 48 hrs by SRB assay; details: UO-31, 48 h
# DU-145 [3] = test: Cytotoxicity against human DU145 cells after 48 hrs by SRB assay; details: DU-145, 48 h
# MOLT-4 = test: Growth inhibition of human MOLT4 cells assessed as cell growth at 10^-8 M incubated for 48 hrs by sulforhodamine B assay relative to control; details: MOLT-4, 48 h, read-out: Activity
# SR = test: Growth inhibition of human SR cells assessed as cell growth at 10^-8 M incubated for 48 hrs by sulforhodamine B assay relative to control; details: read-out: Activity
# NCI-H226 [4] = test: Growth inhibition of human NCI-H226 cells assessed as cell growth at 10^-8 M incubated for 48 hrs by sulforhodamine B assay relative to control; details: NCI-H226, 48 h, read-out: Activity
# NCI-H522 = test: Growth inhibition of human NCI-H522 cells assessed as cell growth at 10^-8 M incubated for 48 hrs by sulforhodamine B assay relative to control; details: NCI-H522, 48 h, read-out: Activity
# Malme-3M = test: Growth inhibition of human MALME-3M cells assessed as cell growth at 10^-8 M incubated for 48 hrs by sulforhodamine B assay relative to control; details: read-out: Activity
# SK-OV-3 = test: Growth inhibition of human SKOV3 cells assessed as cell growth at 10^-8 M incubated for 48 hrs by sulforhodamine B assay relative to control; details: SK-OV-3, 48 h, read-out: Activity
# UO-31 [5] = test: Growth inhibition of human UO31 cells assessed as cell growth at 10^-8 M incubated for 48 hrs by sulforhodamine B assay relative to control; details: UO-31, 48 h, read-out: Activity
# HOP-92 = test: Growth inhibition of human HOP92 cells assessed as cell growth at 10^-7 M incubated for 48 hrs by sulforhodamine B assay relative to control; details: HOP-92, 48 h, read-out: Activity
# COLO 205 = test: Growth inhibition of human COLO205 cells assessed as cell growth at 10^-7 M incubated for 48 hrs by sulforhodamine B assay relative to control; details: COLO 205, 48 h, read-out: Activity
# SNB-19 = test: Growth inhibition of human SNB19 cells assessed as cell growth at 10^-7 M incubated for 48 hrs by sulforhodamine B assay relative to control; details: SNB-19, 48 h, read-out: Activity
# SK-MEL-2 = test: Growth inhibition of human SK-MEL-2 cells assessed as cell growth at 10^-7 M incubated for 48 hrs by sulforhodamine B assay relative to control; details: SK-MEL-2, 48 h, read-out: Activity
# OVCAR-3 = test: Growth inhibition of human OVCAR3 cells assessed as cell growth at 10^-7 M incubated for 48 hrs by sulforhodamine B assay relative to control; details: OVCAR-3, 48 h, read-out: Activity
# OVCAR-4 [6] = test: Growth inhibition of human OVCAR4 cells assessed as cell growth at 10^-7 M incubated for 48 hrs by sulforhodamine B assay relative to control; details: OVCAR-4, 48 h, read-out: Activity
# NCI/ADR-RES = test: Growth inhibition of human NCI/ADR-RES cells assessed as cell growth at 10^-7 M incubated for 48 hrs by sulforhodamine B assay relative to control; details: read-out: Activity
# TK-10 = test: Growth inhibition of human TK10 cells assessed as cell growth at 10^-7 M incubated for 48 hrs by sulforhodamine B assay relative to control; details: TK-10, 48 h, read-out: Activity
# DU-145 [7] = test: Growth inhibition of human DU145 cells assessed as cell growth at 10^-7 M incubated for 48 hrs by sulforhodamine B assay relative to control; details: DU-145, 48 h, read-out: Activity
# MCF7 = test: Growth inhibition of human MCF7 cells assessed as cell growth at 10^-7 M incubated for 48 hrs by sulforhodamine B assay relative to control; details: MCF7, 48 h, read-out: Activity
# OVCAR-4 [8] = test: Growth inhibition of human OVCAR4 cells assessed as cell growth at 10^-6 M incubated for 48 hrs by sulforhodamine B assay relative to control; details: OVCAR-4, 48 h, read-out: Activity
# KM12 = test: Growth inhibition of human KM12 cells assessed as cell growth at 10^-5 M incubated for 48 hrs by sulforhodamine B assay relative to control; details: KM12, 48 h, read-out: Activity
# OVCAR-5 = test: Growth inhibition of human OVCAR5 cells assessed as cell growth at 10^-5 M incubated for 48 hrs by sulforhodamine B assay relative to control; details: OVCAR-5, 48 h, read-out: Activity
# K562 = test: Growth inhibition of human K562 cells assessed as cell growth at 10^-4 M incubated for 48 hrs by sulforhodamine B assay relative to control; details: K562, 48 h, read-out: Activity
# [9] = read-out: LC50 (the source's name)
# [10] = read-out: pLC50 (the source's name) (converted)
compound,measurement,setting,value
C#C[C@@]1(O)[C@@H](CO)O[C@@H](n2cc(Cl)c3c(N)ncnc32)[C@@H]1O,GI50,NCI-H226 [1]; read-out: GI50,308 to 837 nM
same,CC50,NCI-H226 [1]; [9],> 100000 nM
same,TGI,NCI-H226 [1]; read-out: TGI,901 to 100000 nM
same,GI50,NCI-H23; read-out: GI50,173 to 213 nM
same,TGI,NCI-H23; read-out: TGI,716 to 1280 nM
same,CC50,NCI-H23; [10],> 100000 nM
same,GI50,HCT-116; read-out: GI50,18.5 to 22.1 nM
same,TGI,HCT-116; read-out: TGI,> 100000 nM
same,CC50,HCT-116; [10],> 100000 nM
same,TGI,HCT-116; read-out: pTGI (converted),> 100000 nM
same,CC50,UACC-62; [9],> 100000 nM
same,TGI,UACC-62; read-out: TGI,383 nM
same,GI50,UACC-62; read-out: pGI50 (converted),170 nM
same,TGI,UACC-62; read-out: pTGI (converted),380 nM
same,GI50,UO-31 [2]; read-out: GI50,153 to 173 nM
same,TGI,UO-31 [2]; read-out: TGI,472 to 1780 nM
same,CC50,UO-31 [2]; [10],> 100000 nM
same,GI50,DU-145 [3]; read-out: GI50,109 to 159 nM
same,TGI,DU-145 [3]; read-out: TGI,27000 to 100000 nM
same,CC50,DU-145 [3]; [10],> 100000 nM
same,growth at 0.01 µM,MOLT-4,81 to 83%
same,growth at 0.01 µM,SR,107 to 108%
same,growth at 0.01 µM,NCI-H226 [4],99 to 108%
same,growth at 0.01 µM,NCI-H522,82 to 88%
same,growth at 0.01 µM,Malme-3M,93 to 100%
same,growth at 0.01 µM,SK-OV-3,84 to 94%
same,growth at 0.01 µM,UO-31 [5],67 to 82%
same,growth at 0.1 µM,HOP-92,90%
same,growth at 0.1 µM,COLO 205,43 to 69%
same,growth at 0.1 µM,SNB-19,12 to 70%
same,growth at 0.1 µM,SK-MEL-2,47 to 66%
same,growth at 0.1 µM,OVCAR-3,74 to 77%
same,growth at 0.1 µM,OVCAR-4 [6],89 to 95%
same,growth at 0.1 µM,NCI/ADR-RES,37 to 40%
same,growth at 0.1 µM,TK-10,100 to 101%
same,growth at 0.1 µM,DU-145 [7],51 to 61%
same,growth at 0.1 µM,MCF7,17 to 25%
same,growth at 1 µM,OVCAR-4 [8],5 to 13%
same,growth at 10 µM,KM12,5 to 9%
same,growth at 10 µM,OVCAR-5,13 to 14%
same,growth at 100 µM,K562,7 to 8%
